Assay results as given in patent publication US9617283B2, “Bicyclic heterocycle compounds and their uses in therapy” (ASTEX THERAPEUTICS LIMITED, priority 2012, dated 2017).
Where a name gives a salt, the structure may show the parent alone. Read-outs that look alike come from different tables or passages of the source.

Columns and labels:
[1] = biological target: T1, BIR3 domain of human XIAP (residues 252-350) (Homo sapiens, UniProt P98170); test: XIAP in vitro competitive displacement binding assay (fluorescence polarization); conditions: 1 h, percent inhibition (PI) at 0.04 μM; read-out: Xiap IC50 or PI μM
T1 construct: BIR3 domain of human XIAP (residues 252-350); His-tag (cleaved yes); made in house; host or cells: Escherichia coli
T1 sequence (P98170 252-350): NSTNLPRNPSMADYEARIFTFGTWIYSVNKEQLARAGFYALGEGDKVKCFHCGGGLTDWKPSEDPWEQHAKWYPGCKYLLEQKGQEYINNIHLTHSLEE

[2] = tested on: EVSA-T (human breast carcinoma); test: Anti-proliferative activity, Alamar Blue assay, EVSA-T; type: cell-based
Description: Anti-Proliferative Activity
The method is based on the ability of viable cells to reduce resazurin to its fluorescent product resorufin. For each proliferation assay cells are plated onto 96 well plates and allowed to recover for 16 hours prior to the addition of inhibitor compounds (in 0.1% DMSO v/v) for a further 72 hours. […] The anti-proliferative activities of compounds of the invention can be determined by measuring the ability of the compounds to inhibit growth in 3 cancer cell lines: • EVSA-T (human breast carcinoma) DSMZ cat. no.

[3] = Homo sapiens, EVSA-T, 72 h, EVSA-T cell line, 72 hours, Alamar Blue; read-out: EVSA-T prolif
[4] = Homo sapiens, EVSA-T; read-out: EC50 in EVSA-T cell line assays

SMILES | inhibition at 0.04 µM [1] [%] | EC50 [2, 3] [nM] | EC50 ([2]; Homo sapiens, EVSA-T, read-out: EC50 in EVSA-T cell line assays) [nM] | EC50 [2, 4] [nM] | EC50 ([2]; EVSA-T cell line, 72 hours, Alamar Blue; dihydrochloride; read-out: EVSA-T prolif) [nM]
C[C@@H]1CN(CC(=O)N2CC(C)(C)c3ncc(Cc4ccc(F)cc4)cc32)[C@@H](CN2CCCCC2=O)CN1 [Example 21, 1-{[(2R,5R)-1-(2-{6-[(4-Fluorophenyl)methyl]-3,3-dimethyl-1H,2H,3H-pyrrolo[3,2-b]pyridin-1-yl}-2-oxoethyl)-5-methylpiperazin-2-yl]methyl}piperidin-2-one, dihydrochloride] | 44 | 2.1 | < 1000 |  | 
CCCC(F)(F)c1cc2c(cn1)C(C)(C)CN2C(=O)CN1C[C@@H](C)NC[C@@H]1CN1Cc2ncccc2C1=O [Example 68, 6-{[(2R,5R)-1-{2-[6-(1,1-Difluorobutyl)-3,3-dimethyl-1H,2H,3H-pyrrolo[3,2-c]pyridin-1-yl]-2-oxoethyl}-5-methylpiperazin-2-yl]methyl}-5H,6H,7H-pyrrolo[3,4-b]pyridin-5-one dihydrochloride] | 72 | 2.4 |  | < 1000 | 
C[C@@H]1CN(CC(=O)N2CC(C)(C)c3cnc(Cc4ccc(F)cc4F)cc32)[C@@H](CN2C[C@@H](C)OCC2=O)CN1 [Example 69, (6R)-4-{[(2R,5R)-1-(2-{6-[(2,4-Difluorophenyl)methyl]-3,3-dimethyl-1H,2H,3H-pyrrolo[3,2-c]pyridin-1-yl}-2-oxoethyl)-5-methylpiperazin-2-yl]methyl}-6-methylmorpholin-3-one dihydrochloride] | 68 | 2.6 |  | < 1000 | 
C[C@@H]1CN(CC(=O)N2CC(C)(C)c3cnc(Cc4ccc(F)cc4)cc32)[C@@H](CN2C[C@H](C)N(C)CC2=O)CN1 [Example 107, (5S)-1-{[(2R,5R)-1-(2-{6-[(4-Fluorophenyl)methyl]-3,3-dimethyl-1H,2H,3H-pyrrolo[3,2-c]pyridin-1-yl}-2-oxoethyl)-5-methylpiperazin-2-yl]methyl}-4,5-dimethylpiperazin-2-one dihydrochloride] | 67 | 11 |  | < 1000 | 
CC1=C(C)C(=O)N(C[C@H]2CN[C@H](C)CN2CC(=O)N2CC(C)(C)c3ncc(Cc4ccc(F)cc4F)cc32)C1 [Example 24, 1-{[(2R,5R)-1-(2-{6-[(2,4-Difluorophenyl)methyl]-3,3-dimethyl-1H,2H,3H-pyrrolo[3,2-b]pyridin-1-yl}-2-oxoethyl)-5-methylpiperazin-2-yl]methyl}-3,4-dimethyl-2,5-dihydro-1H-pyrrol-2-one, dihydrochloride] | 72 | 1.7 |  | < 1000 | 
C[C@@H]1CN(CC(=O)N2CC(C)(C)c3ncc([C@@H](O)c4ccc(F)cc4)cc32)[C@@H](CN2Cc3ccccc3C2=O)CN1 [Example 96, 2-{[(2R,5R)-1-(2-{6-[(S)-(4-Fluorophenyl)(hydroxy)methyl]-3,3-dimethyl-1H,2H,3H-pyrrolo[3,2-b]pyridin-1-yl}-2-oxoethyl)-5-methylpiperazin-2-yl]methyl}-2,3-dihydro-1H-isoindol-1-one] | 62 | 31 |  | < 1000 | 
C[C@@H]1CN(CC(=O)N2CC(C)(C)c3ncc(Cc4ccc(F)cc4)cc32)[C@@H](CN2Cc3ccncc3C2=O)CN1 [Example 19, 2-{[(2R,5R)-1-(2-{6-[(4-Fluorophenyl)methyl]-3,3-dimethyl-1H,2H,3H-pyrrolo[3,2-b]pyridin-1-yl}-2-oxoethyl)-5-methylpiperazin-2-yl]methyl}-1H,2H,3H-pyrrolo[3,4-c]pyridin-3-one, dihydrochloride] | 64 | 2.4 |  | < 1000 | 
C[C@H]1CC(=O)N(C[C@H]2CN[C@H](C)CN2CC(=O)N2CC(C)(C)c3ncc(Cc4ccc(F)cc4F)cc32)C1 [Example 73, (4S)-1-{[(2R,5R)-1-(2-{6-[(2,4-Difluorophenyl)methyl]-3,3-dimethyl-1H,2H,3H-pyrrolo[3,2-b]pyridin-1-yl}-2-oxoethyl)-5-methylpiperazin-2-yl]methyl}-4-methylpyrrolidin-2-one dihydrochloride] | 64 | 2.5 |  | < 1000 | 
CCCC(F)(F)c1cc2c(cn1)C(C)(C)CN2C(=O)CN1C[C@@H](C)NC[C@@H]1CN1Cc2ccccc2C1=O [Example 27, 2-{[(2R,5R)-1-{2-[6-(1,1-Difluorobutyl)-3,3-dimethyl-1H,2H,3H-pyrrolo[3,2-c]pyridin-1-yl]-2-oxoethyl}-5-methylpiperazin-2-yl]methyl}-2,3-dihydro-1H-isoindol-1-one, dihydrochloride] | 75 | 5.2 |  | < 1000 | 
CC1=C(C)C(=O)N(C[C@H]2CN[C@H](C)CN2CC(=O)N2CC(C)(C)c3nnc(Cc4ccc(F)cc4)cc32)C1 [Example 51, 1-{[(2R,5R)-1-(2-{3-[(4-Fluorophenyl)methyl]-7,7-dimethyl-5H,6H,7H-pyrrolo[3,2-c]pyridazin-5-yl}-2-oxoethyl)-5-methylpiperazin-2-yl]methyl}-3,4-dimethyl-2,5-dihydro-1H-pyrrol-2-one L-lactate] | 48 | 4.9 |  | < 1000 | 
CCCC(O)c1cnc2c(c1)N(C(=O)CN1C[C@@H](C)NC[C@@H]1CN1Cc3ccccc3C1=O)CC2(C)C (single isomer, unassigned) [Example 90, dihydrochloride] | 54 |  |  | < 1000 | 13
C[C@@H]1CN(CC(=O)N2CC(C)(C)c3ncc(Cc4ccc(F)cc4F)cc32)[C@@H](CN2Cc3c(O)cccc3C2=O)CN1 [Example 118, 2-{[(2R,5R)-1-(2-{6-[(2,4-Difluorophenyl)methyl]-3,3-dimethyl-1H,2H,3H-pyrrolo[3,2-b]pyridin-1-yl}-2-oxoethyl)-5-methylpiperazin-2-yl]methyl}-4-hydroxy-2,3-dihydro-1H-isoindol-1-one dihydrochloride] | 72 | 6.4 |  | < 1000 | 
C[C@@H]1CN(CC(=O)N2CC(C)(C)c3nnc(Cc4ccc(F)cc4F)cc32)[C@@H](CN2Cc3cc(O)ccc3C2=O)CN1 [Example 108, 2-{[(2R,5R)-1-(2-{3-[(2,4-Difluorophenyl)methyl]-7,7-dimethyl-5H,6H,7H-pyrrolo[3,2-c]pyridazin-5-yl}-2-oxoethyl)-5-methylpiperazin-2-yl]methyl}-5-hydroxy-2,3-dihydro-1H-isoindol-1-one dihydrochloride] | 88 | 11 |  | < 1000 | 
C[C@@H]1CN(CC(=O)N2CC(C)(C)c3ncc(Cc4ccc(F)cc4)cc32)[C@@H](CN2CC3(COC3)CC2=O)CN1 [Example 12, 6-{[(2R,5R)-1-(2-{6-[(4-Fluorophenyl)methyl]-3,3-dimethyl-1H,2H,3H-pyrrolo[3,2-b]pyridin-1-yl}-2-oxoethyl)-5-methylpiperazin-2-yl]methyl}-2-oxa-6-azaspiro[3.4]octan-7-one L-lactate] | 42 | 7.1 |  | < 1000 | 
C[C@@H]1CN(CC(=O)N2CC(C)(C)c3ncc(Cc4ccc(F)cc4)cc32)[C@@H](CN2CCC(C)(C)C2=O)CN1 [Example 4, 1-{[(2R,5R)-1-(2-{6-[(4-Fluorophenyl)methyl]-3,3-dimethyl-1H,2H,3H-pyrrolo[3,2-b]pyridin-1-yl}-2-oxoethyl)-5-methylpiperazin-2-yl]methyl}-3,3-dimethylpyrrolidin-2-one dihydrochloride] | 34 | 3 |  | < 1000 | 
